Blank lines part the entries; values can stand above or below the molecule they belong to.
How the values were obtained:
CYP3A1 [1] = assay: CYP inhibition assay in OVX rat liver microsomes; assay type: in vitro ADME; conditions: female, liver microsomes from ovariectomized (OVX) rats, pH 7.4, individual constituents 10 μM
Protocol: (§1) CYP-mediated metabolite formation from a substrate (200 μM each) or the formation of glucuronide conjugates from the UGT isozyme-specific substrate (200 μM each) was monitored to determine the isozyme activity. Typical incubation was performed with rat (1 mg/mL) or human (0.5 mg/mL) liver microsomes in the presence of an appropriate cofactor in a buffer system (pH 7.4) at 37 °C for 60 min as described previously.
(§2) The HPLC system (Agilent, Santa Clara, CA, USA) consisted of an Agilent 1200 binary pump, DAD, and Agilent 1260 autosampler. A Kinetex C18 reverse-phase column (5 μm, 4.6 × 150 mm) (Phenomenex, Torrance, CA, USA) protected by a KrudKatcher Ultra HPLC in-line filter (Phenomenex) was used for separation. HPLC conditions to determine the isozyme-specific metabolites and major constituents in OFIE are described in the Supplementary Materials. LC-electrospray (ESI)-tandem mass spectrometry (MS^2) analysis was employed to detect glucuronide products. An Linear Trap Quadropole (LTQ) linear ion trap mass spectrometer (Thermo Scientific, Waltham, MA, USA) with an ESI source was coupled with an Agilent 1200 HPLC system.

CYP2C11 = assay: CYP inhibition assay in OVX rat liver microsomes; assay type: in vitro ADME; conditions: for inhibition at 60 min, 10 μM: female, liver microsomes from ovariectomized (OVX) rats, pH 7.4, individual constituents 10 μM
Protocol: as §1, §2

CYP3A4 = target: T1, CYP3A4 (Homo sapiens, UniProt P08684); parameters: method as in earlier work; conditions: range given jointly for quercetin and kaempferol on CYP1A2 and CYP3A4; Von Moltke et al.; read-out: IC50, inhibition of CYP3A4; cited from earlier work
T1 construct: tissue Corning 452117; host or cells: pooled human liver microsomes (150 donors)

[2] = target: T2, human pregnane X receptor (hPXR) (Homo sapiens, UniProt O75469); assay: PXR-mediated CYP3A4 promoter luciferase reporter assay in HepG2 cells; assay type: cell-based; conditions: 24 h, vs DMSO; for induction in the PXR promoter activity: individual flavonoids 10 μM
T2 construct: expressed in transfected cells; host or cells: HepG2
T2 sequence (O75469 1-434): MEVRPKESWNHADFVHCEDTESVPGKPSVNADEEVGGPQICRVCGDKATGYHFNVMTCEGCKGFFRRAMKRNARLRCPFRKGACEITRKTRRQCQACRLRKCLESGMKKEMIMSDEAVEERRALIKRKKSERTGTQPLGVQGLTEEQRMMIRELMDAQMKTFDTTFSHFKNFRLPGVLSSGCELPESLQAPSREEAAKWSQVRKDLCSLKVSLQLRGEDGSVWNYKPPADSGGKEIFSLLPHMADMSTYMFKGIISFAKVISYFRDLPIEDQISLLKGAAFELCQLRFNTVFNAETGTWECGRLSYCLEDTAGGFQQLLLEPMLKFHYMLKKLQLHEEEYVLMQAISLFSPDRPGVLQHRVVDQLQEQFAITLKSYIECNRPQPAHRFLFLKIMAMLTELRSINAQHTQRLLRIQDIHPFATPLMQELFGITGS
Protocol: The human hepatocarcinoma cell line HepG2 was purchased from the […] (Manassas, VA, USA) and maintained in Dulbecco’s modified Eagle’s essential medium (DMEM) containing 10% fetal bovine serum, 1% nonessential amino acids, 1% GlutaMAX, and 1% antibiotics/antimycotics in a 5% CO2 atmosphere at 37 °C.
The expression plasmid for human constitutive androstane receptor (hCAR; pcDNA3-CAR) and pGL3-CYP2B6 luciferase construct were kindly provided by Dr. Hongbing Wang (University of Maryland, College Park, MD, USA). The plasmid for human pregnane X receptor (hPXR; pcDNA3-PXR) and pGL3-CYP3A4 luciferase construct were generous gifts from Masahiko Negishi (National Institutes of Health, Bethesda, MD, USA). HepG2 cells were seeded at a density of 1.5 × 10^5 cells/well into a 24-well plate. On the next day, the cells were transfected with 0.25 μg of either pcDNA3-CAR or pcDNA3-PXR and 0.25 μg of promoter luciferase plasmid (i.e., either pGL3-CYP2B6 or pGL3-CYP3A4) using Lipofectamine 2000 (Invitrogen, Carlsbad, CA, USA) according to the manufacturer’s instructions. To normalize the transfection efficiency, the pRL-TK plasmid (0.25 μg/well; Promega), which contains cDNA encoding Renilla luciferase, was cotransfected. The transfected cells were grown for 24 h, treated with various test materials, and incubated for an additional 24 h. The luciferase activities in the cell lysates were measured using the dual luciferase assay system (Promega) with a SpectraMax i3x (Molecular Devices, San Jose, CA, USA). Data are reported as a relative luciferase activity, which is the firefly luciferase reading divided by the Renilla luciferase reading.

[3] = target: T3, human constitutive androstane receptor (hCAR) (Homo sapiens, UniProt Q14994); assay: CAR-mediated CYP2B6 promoter luciferase reporter assay in HepG2 cells; assay type: cell-based; conditions: E2, concentration not given, 24 h, vs DMSO
T3 construct: expressed in transfected cells; host or cells: HepG2
T3 sequence (Q14994 1-352): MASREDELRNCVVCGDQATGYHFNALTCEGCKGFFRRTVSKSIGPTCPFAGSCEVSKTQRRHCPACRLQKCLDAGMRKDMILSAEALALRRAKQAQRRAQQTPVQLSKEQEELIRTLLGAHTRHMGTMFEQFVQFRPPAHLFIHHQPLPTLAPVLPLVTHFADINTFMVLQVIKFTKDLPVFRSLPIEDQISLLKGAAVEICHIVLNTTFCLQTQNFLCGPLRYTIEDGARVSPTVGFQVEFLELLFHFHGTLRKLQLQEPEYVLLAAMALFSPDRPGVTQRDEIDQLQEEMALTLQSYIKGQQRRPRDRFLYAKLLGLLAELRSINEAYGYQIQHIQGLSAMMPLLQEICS

CYP2B1 [4] = assay: ex vivo activity assay in liver microsomes of orally treated OVX rats; parameters: species or system rat; conditions: E2 0.5 mg/kg/day oral, 5 weeks, control group set as 1
Protocol: as §2, with “Rats were bilaterally ovariectomized under 1.5-3% isoflurane anesthesia as described previously. […] Administration via forced gastric gavage was performed to ensure the exact amount of test compounds be dosed to each animal. […] Animals were weighed daily and dosage was changed weekly according to weight gain. Animals were euthanized by carbon dioxide inhalation to minimize aversion or distress. Liver microsomal fractions were prepared from livers of OVX rats using differential centrifugation as described previously. […] The HPLC” for “The HPLC”

UGT isoforms = assay: as above; parameters: species or system rat; conditions: E2 0.5 mg/kg/day oral, 5 weeks
Protocol: as §2, with “Rats were bilaterally ovariectomized under 1.5-3% isoflurane anesthesia as described previously. […] Administration via forced gastric gavage was performed to ensure the exact amount of test compounds be dosed to each animal. […] Animals were weighed daily and dosage was changed weekly according to weight gain. Animals were euthanized by carbon dioxide inhalation to minimize aversion or distress. Liver microsomal fractions were prepared from livers of OVX rats using differential centrifugation as described previously. […] The HPLC” for “The HPLC”

CYP2B1 [5] = assay: hepatic mRNA expression (qPCR) in OVX rats after 5-week oral administration; assay type: in vivo; conditions: OVX rat liver; E2 0.5 mg/kg/day oral, 5 weeks; vs vehicle control
Protocol: After 14 days of endogenous hormonal decline, rats were randomly divided into several groups (n = 6 per group) and subjected to oral administration of olive oil (control), E2 (0.5 mg/kg/day, positive control) or OFIE (250 and 500 mg/kg/day) via gastric gavage for 5 weeks. […] Administration via forced gastric gavage was performed to ensure the exact amount of test compounds be dosed to each animal. […] Animals were weighed daily and dosage was changed weekly according to weight gain.
The total RNA was isolated from homogenized rat liver tissue using a Nucleospin RNA/Protein kit (Macherey-Nagel, Düren, Germany) according to the manufacturer’s manual. The cDNA was synthesized from the total RNA (2 μg) using oligo (dT) and M-MLV reverse transcriptase (Promega, Madison, WI, USA). A qPCR analysis was performed to determine the mRNA levels of both hepatic CYP and UGT isozymes on an ABI Prism 7500 Sequence Detection System (Applied Biosystems, Foster City, CA, USA) using SYBR Green PCR Master Mix (Toyobo, Osaka, Japan) and a gene-specific primer set (Table S1 for primer sequences). The ABI 7500 Software (v2.0.6, Foster City, CA, USA) was used for the estimation of CT. The 2^−ΔΔCt method was applied for relative quantification. […] The results were expressed as fold change when the gene expression level in the vehicle control-treated sample was set as 1.

CYP3A1 [6] = assay: as above; assay type: in vivo; conditions: OVX rat liver; E2 0.5 mg/kg/day oral, 5 weeks; vs vehicle control
UGT2B1 = assay: as above; assay type: in vivo; conditions: OVX rat liver; E2 0.5 mg/kg/day and both doses of OFIE (250, 500 mg/kg/day) oral, 5 weeks; range over the groups
Protocol: (§3) Rats were bilaterally ovariectomized under 1.5–3% isoflurane anesthesia as described previously. […] Administration via forced gastric gavage was performed to ensure the exact amount of test compounds be dosed to each animal. […] Animals were weighed daily and dosage was changed weekly according to weight gain. Animals were euthanized by carbon dioxide inhalation to minimize aversion or distress. Liver microsomal fractions were prepared from livers of OVX rats using differential centrifugation as described previously.
(§4) The total RNA was isolated from homogenized rat liver tissue using a Nucleospin RNA/Protein kit (Macherey-Nagel, Düren, Germany) according to the manufacturer’s manual. The cDNA was synthesized from the total RNA (2 μg) using oligo (dT) and M-MLV reverse transcriptase (Promega, Madison, WI, USA). A qPCR analysis was performed to determine the mRNA levels of both hepatic CYP and UGT isozymes on an ABI Prism 7500 Sequence Detection System (Applied Biosystems, Foster City, CA, USA) using SYBR Green PCR Master Mix (Toyobo, Osaka, Japan) and a gene-specific primer set (Table S1 for primer sequences).

CYP2D1 = assay: as above; assay type: in vivo; conditions: OVX rat liver; E2 0.5 mg/kg/day oral, 5 weeks; vs vehicle control
Protocol: as §3, §4

CYP1A2 = target: T4, CYP1A2 (Homo sapiens, UniProt P05177); assay: CYP inhibition assay in human liver microsomes; assay type: in vitro ADME; conditions: pooled human liver microsomes, individual constituents 10 μM; for inhibition at 60 min, 10 μM: pH 7.4
T4 construct: tissue Corning 452117; host or cells: pooled human liver microsomes (150 donors)
T4 sequence (P05177 1-516): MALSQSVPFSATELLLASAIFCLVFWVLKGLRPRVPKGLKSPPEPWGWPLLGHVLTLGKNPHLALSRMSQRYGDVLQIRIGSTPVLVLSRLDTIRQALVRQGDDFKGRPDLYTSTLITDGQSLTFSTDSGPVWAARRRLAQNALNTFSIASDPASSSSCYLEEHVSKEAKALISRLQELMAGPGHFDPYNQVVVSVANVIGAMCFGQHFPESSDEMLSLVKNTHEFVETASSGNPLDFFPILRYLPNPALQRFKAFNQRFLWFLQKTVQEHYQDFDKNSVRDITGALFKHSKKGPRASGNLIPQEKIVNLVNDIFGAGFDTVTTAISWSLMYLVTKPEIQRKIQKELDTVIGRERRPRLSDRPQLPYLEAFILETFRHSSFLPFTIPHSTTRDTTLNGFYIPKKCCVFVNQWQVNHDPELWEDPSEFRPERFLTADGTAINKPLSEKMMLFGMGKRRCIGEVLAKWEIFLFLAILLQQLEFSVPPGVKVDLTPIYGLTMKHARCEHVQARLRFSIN
Protocol: as §1
as §2, with “HPLC conditions to determine the isozyme-specific metabolites and major constituents in OFIE are described in the Supplementary Materials.” left out

T1 sequence (P08684 whole entry): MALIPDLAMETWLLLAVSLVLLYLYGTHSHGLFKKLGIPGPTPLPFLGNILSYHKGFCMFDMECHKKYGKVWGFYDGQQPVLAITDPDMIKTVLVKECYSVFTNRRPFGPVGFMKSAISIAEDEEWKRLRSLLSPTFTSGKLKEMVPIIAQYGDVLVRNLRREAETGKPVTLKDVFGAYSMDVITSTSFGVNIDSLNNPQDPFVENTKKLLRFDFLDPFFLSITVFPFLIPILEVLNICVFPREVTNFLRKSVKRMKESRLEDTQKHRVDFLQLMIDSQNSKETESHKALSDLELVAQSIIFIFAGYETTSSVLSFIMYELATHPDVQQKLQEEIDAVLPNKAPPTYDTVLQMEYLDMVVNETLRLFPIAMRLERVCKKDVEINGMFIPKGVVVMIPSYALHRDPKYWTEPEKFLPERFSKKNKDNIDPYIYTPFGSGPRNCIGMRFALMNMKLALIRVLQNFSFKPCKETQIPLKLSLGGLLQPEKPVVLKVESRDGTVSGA

- inhibition at 60 min, 10 μM (CYP3A1 [1]): 20%
- inhibition at 60 min, 10 μM (CYP2C11): 10%
SMILES: O=c1c(O)c(-c2ccc(O)cc2)oc2cc(O)cc(O)c12 [kaempferol]
- IC50 (CYP3A4): 10 to 16 µM

SMILES: C[C@@H]1O[C@@H](OC[C@H]2O[C@@H](Oc3c(-c4ccc(O)c(O)c4)oc4cc(O)cc(O)c4c3=O)[C@H](O)[C@@H](O)[C@@H]2O)[C@H](O)[C@H](O)[C@H]1O [rutin]
- induction in the PXR promoter activity [2]: significant induction

- increase in CAR-mediated CYP2B6 reporter activity [3]: 4.8 fold
- PXR-mediated CYP3A4 reporter activity ([2]; E2, concentration not given): did not alter
- increase in activity of CYP2B1 (CYP2B1 [4]): 2.7 fold
- increase in mRNA expression of CYP2B1 (CYP2B1 [5]): 7.7 fold
- increase in mRNA expression of CYP3A1 (CYP3A1 [6]): 12 fold
- increase in mRNA expression of CYP2D1 (CYP2D1): 2.6 fold
SMILES: C[C@]12CC[C@@H]3c4ccc(O)cc4CC[C@H]3[C@@H]1CC[C@@H]2O [E2, 17β-Estradiol]
- change in activities of all UGT isoforms examined (UGT isoforms): no changes
- increased expression of UGT2B1 mRNA (UGT2B1): 3.8–6.5 folds

- inhibition at 60 min, 10 μM (CYP3A1 [1]): 10%
- inhibition at 60 min, 10 μM (CYP2C11): 18%
- inhibition at 60 min, 10 μM (CYP1A2): 31%
SMILES: O=c1c(O)c(-c2ccc(O)c(O)c2)oc2cc(O)cc(O)c12 [quercetin]

- inhibition at 60 min, 10 μM (CYP3A1 [1]): 10%
- inhibition of human CYP1A2 activity (CYP1A2): did not significantly inhibit
- induction in the PXR promoter activity [2]: significant induction
SMILES: COc1cc(-c2oc3cc(O)cc(O)c3c(=O)c2O[C@@H]2O[C@H](CO[C@@H]3O[C@@H](C)[C@H](O)[C@@H](O)[C@H]3O)[C@@H](O)[C@H](O)[C@H]2O)ccc1O [narcissin]

SMILES: COc1cc(-c2oc3cc(O)cc(O)c3c(=O)c2O)ccc1O [isorhamnetin]
- inhibition of rat CYP2C11 activity (CYP2C11; individual constituents 10 μM): did not result in a significant inhibition
- inhibition at 60 min, 10 μM (CYP1A2): 40%

Source: publication PMC6274835, “Inhibitory and Inductive Effects of Opuntia ficus indica Extract and Its Flavonoid Constituents on Cytochrome P450s and UDP-Glucuronosyltransferases” (International Journal of Molecular Sciences, 2018)
